Results as given in patent US20240101576A1, “HETEROCYCLIC INHIBITORS OF EGFR AND/OR HER2, FOR USE IN THE TREATMENT OF CANCER” (Scorpion Therapeutics, Inc., priority 2020, published 2024).

How the values were obtained:
Type in all cases: cell-based
[1] = target: T1, EGFR exon 20 SVD Ins D770_N771 (Ba/F3 cells) (Homo sapiens, UniProt P00533, INS770SVD); experiment: Inhibitor activity on EGFR-dependent cell growth (CellTiter-Glo, 72 h), Ba/F3 EGFR exon 20 SVD Ins; settings: read-out: BaF3 SVD IC50
T1 construct: expressed in transfected cells; host or cells: Ba/F3 (murine pro-B cells), retroviral transduction, puromycin selection, IL3-independent pool
In short: (§1)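 IC50s derive from a sigmoidal dose–response fit of CellTiter-Glo signal. The signal was normalised between […]-treated cells and cell-free medium. Ba/F3 mutant-EGFR cells, seeded at 400–800/well depending on the line, had 72 h of exposure to a 10-point, 3-fold compound series.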

[2] = target: T2, EGFR exon 20 ASV Ins V769_D770 (Ba/F3 cells) (Homo sapiens, UniProt P00533, INS769ASV); experiment: Inhibitor activity on EGFR-dependent cell growth (CellTiter-Glo, 72 h), Ba/F3 EGFR exon 20 ASV Ins; settings: read-out: BaF3 ASV IC50
T2 construct: expressed in transfected cells; host or cells: Ba/F3 (murine pro-B cells), retroviral transduction, puromycin selection, IL3-independent pool
In short: as §1

[3] = target: T3, EGFR exon 20 NPG Ins D770_N771 (Ba/F3 cells) (Homo sapiens, UniProt P00533, INS770NPG); experiment: Inhibitor activity on EGFR-dependent cell growth (CellTiter-Glo, 72 h), Ba/F3 EGFR exon 20 NPG Ins; settings: read-out: BaF3 NPG IC50
T3 construct: expressed in transfected cells; host or cells: Ba/F3 (murine pro-B cells), retroviral transduction, puromycin selection, IL3-independent pool
Excerpt: Example A. Inhibitor Activity on EGFR-Dependent Cell Growth
Cell lines are generated by transducing Ba/F3 cells with retroviruses containing vectors with EGFR WT, EGFR L858R, EGFR exon 19del, EGFR L858R/C797S, EGFR exon 20 NPG Ins D770_N771, EGFR exon 20 ASV Ins V769_D770, EGFR exon 20 SVD Ins D770_N771, or EGFR exon 20 FQEA Ins A763_V764 genes and a puromycin selection marker. Transduced cells are selected with puromycin for 7 days and are then be transferred into culture media without Interleukin 3 (IL3). EGFR WT cells are maintained with supplemental EGF. Surviving cells are confirmed to express EGFR by Western blot and maintained as a pool. The IC50 date were included in Table 6 and Table 7.
1.1 Cells are harvested from flask into cell culture medium and the cell number counted.
1.2 Cells are diluted with culture medium to the desired density and 40 μL of cell suspension is added into each well of 384-well cell culture plate and the seeding density is 800 (FQEA, exon 19del), 600 (WT, NPG, L858R/C797S), or 400 (ASV, SVD, L858R) cells/well.
2 Compound Preparation and Treatment
2.1 Test compounds are dissolved to 10 mM in a DMSO stock solution. 45 μL of stock solution is transferred to a 384 polypropylene plate (pp-plate). Perform 3-fold, 10-point dilution via transferring 15 μL compound into 30 μL DMSO using a TECAN (EVO200) liquid handler.
2.2 Spin plates at room temperature at 1,000 RPM for 1 minute.
2.3 Transfer 120 nL of diluted compound from compound source plate into the cell plate.
2.4 After compound treatment for 72 hours, perform CTG detection for compound treatment plates as described in “Detection” section.
3.1 Plates are removed from incubators and equilibrated at room temperature for 15 minutes.
3.2 Thaw the CellTiter Glo reagents and allow to equilibrate to room temperature before the experiment.
3.3 Add 40 μL of CellTiter-Glo reagent into each well (at 1:1 to culture medium). Then place the plates at room temperature for 30 min followed by reading on EnVision.
4.1 Inhibition activity is calculated following the formula below:
% Inhibition=100×(LumHC−LumSample)/(LumHC−LumLC) • where HC is obtained from cells treated with 0.1% DMSO only; and LC is obtained from culture medium only.
4.2 2. Calculate the IC50 by fitting the Curve using Xlfit (v5.3.1.3), equation 201.
Y=Bottom+(Top−Bottom)/(1+10^((Log IC50−X)*HillSlope))

[4] = target: T4, EGFR WT (Ba/F3 cells) (Homo sapiens, UniProt P00533); experiment: Inhibitor activity on EGFR-dependent cell growth (CellTiter-Glo, 72 h), Ba/F3 EGFR WT; settings: read-out: BaF3 WT IC50
T4 construct: expressed in transfected cells; host or cells: Ba/F3 (murine pro-B cells), retroviral transduction, puromycin selection, maintained with EGF
In short: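 This growth assay used Ba/F3 cells that depend on wild-type EGFR and are kept in EGF without IL3. Compounds were made up as 10 mM DMSO stocks and diluted 3-fold over 10 points. 120 nL went onto 600 cells/well. After 72 hours, 40 μL CellTiter-Glo was added and luminescence read on EnVision after 30 min.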

[5] = target: T5, EGFR exon 20 FQEA Ins A763_V764 (Ba/F3 cells) (Homo sapiens, UniProt P00533, INS763FQEA); experiment: Inhibitor activity on EGFR-dependent cell growth (CellTiter-Glo, 72 h), Ba/F3 EGFR exon 20 FQEA Ins; settings: read-out: BaF3 FQEA IC50
T5 construct: expressed in transfected cells; host or cells: Ba/F3 (murine pro-B cells), retroviral transduction, puromycin selection, IL3-independent pool
In short: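 Steps: seed Ba/F3 EGFR-mutant pools (800 cells/well FQEA and exon 19del; 600 L858R/C797S; 400 L858R). Add 120 nL of serially diluted compound and incubate 72 h. Equilibrate to room temperature, add CellTiter-Glo and read after 30 min. Fit IC50.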

T3 sequence (P00533 with tags, fused parts or gaps INS770NPG): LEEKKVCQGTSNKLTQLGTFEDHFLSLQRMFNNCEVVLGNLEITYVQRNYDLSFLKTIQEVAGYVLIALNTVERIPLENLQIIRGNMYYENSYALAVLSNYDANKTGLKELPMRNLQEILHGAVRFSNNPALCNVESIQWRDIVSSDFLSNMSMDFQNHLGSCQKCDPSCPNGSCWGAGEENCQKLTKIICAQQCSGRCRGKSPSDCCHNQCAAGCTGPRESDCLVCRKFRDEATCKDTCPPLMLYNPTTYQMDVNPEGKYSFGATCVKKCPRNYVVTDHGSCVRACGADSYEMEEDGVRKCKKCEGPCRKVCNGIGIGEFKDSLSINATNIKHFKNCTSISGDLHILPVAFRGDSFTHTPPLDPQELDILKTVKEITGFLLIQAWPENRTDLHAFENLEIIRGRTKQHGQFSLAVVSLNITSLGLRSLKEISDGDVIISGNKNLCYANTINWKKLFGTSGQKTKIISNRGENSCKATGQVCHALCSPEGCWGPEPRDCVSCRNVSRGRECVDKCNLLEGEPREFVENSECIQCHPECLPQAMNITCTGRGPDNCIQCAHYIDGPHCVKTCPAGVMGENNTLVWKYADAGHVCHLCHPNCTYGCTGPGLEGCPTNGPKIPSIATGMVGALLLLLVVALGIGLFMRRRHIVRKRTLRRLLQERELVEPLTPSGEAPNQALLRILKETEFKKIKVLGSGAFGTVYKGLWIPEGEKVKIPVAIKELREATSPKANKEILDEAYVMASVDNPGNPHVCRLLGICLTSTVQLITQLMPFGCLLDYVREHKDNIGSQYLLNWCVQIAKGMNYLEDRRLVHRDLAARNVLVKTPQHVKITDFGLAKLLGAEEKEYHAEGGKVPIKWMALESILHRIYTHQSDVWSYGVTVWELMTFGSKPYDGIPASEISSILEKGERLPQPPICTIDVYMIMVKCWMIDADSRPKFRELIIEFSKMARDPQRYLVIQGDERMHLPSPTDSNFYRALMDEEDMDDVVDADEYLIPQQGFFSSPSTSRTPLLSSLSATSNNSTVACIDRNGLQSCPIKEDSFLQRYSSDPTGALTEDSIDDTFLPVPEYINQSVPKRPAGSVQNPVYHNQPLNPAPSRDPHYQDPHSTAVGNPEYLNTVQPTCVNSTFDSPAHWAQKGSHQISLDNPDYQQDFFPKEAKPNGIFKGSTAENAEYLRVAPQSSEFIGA
T5 sequence (P00533 with tags, fused parts or gaps INS763FQEA): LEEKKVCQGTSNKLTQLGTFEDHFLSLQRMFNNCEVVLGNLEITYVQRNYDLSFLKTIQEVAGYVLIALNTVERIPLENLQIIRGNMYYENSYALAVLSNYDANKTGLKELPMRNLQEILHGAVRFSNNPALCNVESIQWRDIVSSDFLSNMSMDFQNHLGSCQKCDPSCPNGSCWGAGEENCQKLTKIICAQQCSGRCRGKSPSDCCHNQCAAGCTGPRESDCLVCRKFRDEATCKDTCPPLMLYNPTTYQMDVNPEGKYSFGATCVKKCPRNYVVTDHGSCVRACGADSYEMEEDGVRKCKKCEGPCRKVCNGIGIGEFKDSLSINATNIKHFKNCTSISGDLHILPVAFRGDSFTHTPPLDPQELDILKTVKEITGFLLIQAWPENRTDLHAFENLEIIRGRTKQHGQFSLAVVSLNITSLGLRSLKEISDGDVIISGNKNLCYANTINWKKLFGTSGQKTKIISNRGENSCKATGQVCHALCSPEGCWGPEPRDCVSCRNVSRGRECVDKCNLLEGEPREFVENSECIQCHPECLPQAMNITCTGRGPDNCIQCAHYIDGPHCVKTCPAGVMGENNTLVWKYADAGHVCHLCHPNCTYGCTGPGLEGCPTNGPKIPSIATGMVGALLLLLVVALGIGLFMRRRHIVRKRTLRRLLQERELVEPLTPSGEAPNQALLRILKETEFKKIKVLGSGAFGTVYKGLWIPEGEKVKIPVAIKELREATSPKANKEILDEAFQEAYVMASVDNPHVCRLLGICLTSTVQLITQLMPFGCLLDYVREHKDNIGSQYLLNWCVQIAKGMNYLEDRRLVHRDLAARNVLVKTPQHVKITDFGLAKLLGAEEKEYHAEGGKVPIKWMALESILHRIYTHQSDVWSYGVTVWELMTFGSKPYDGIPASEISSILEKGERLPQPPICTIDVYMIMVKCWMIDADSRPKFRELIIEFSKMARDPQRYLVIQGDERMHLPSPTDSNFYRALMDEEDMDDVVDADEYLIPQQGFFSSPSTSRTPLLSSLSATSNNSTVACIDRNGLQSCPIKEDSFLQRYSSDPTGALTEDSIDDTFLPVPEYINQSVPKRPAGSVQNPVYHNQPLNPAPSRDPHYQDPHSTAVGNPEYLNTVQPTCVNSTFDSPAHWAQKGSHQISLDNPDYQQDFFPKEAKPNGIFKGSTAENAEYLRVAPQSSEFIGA
T2 sequence (P00533 with tags, fused parts or gaps INS769ASV): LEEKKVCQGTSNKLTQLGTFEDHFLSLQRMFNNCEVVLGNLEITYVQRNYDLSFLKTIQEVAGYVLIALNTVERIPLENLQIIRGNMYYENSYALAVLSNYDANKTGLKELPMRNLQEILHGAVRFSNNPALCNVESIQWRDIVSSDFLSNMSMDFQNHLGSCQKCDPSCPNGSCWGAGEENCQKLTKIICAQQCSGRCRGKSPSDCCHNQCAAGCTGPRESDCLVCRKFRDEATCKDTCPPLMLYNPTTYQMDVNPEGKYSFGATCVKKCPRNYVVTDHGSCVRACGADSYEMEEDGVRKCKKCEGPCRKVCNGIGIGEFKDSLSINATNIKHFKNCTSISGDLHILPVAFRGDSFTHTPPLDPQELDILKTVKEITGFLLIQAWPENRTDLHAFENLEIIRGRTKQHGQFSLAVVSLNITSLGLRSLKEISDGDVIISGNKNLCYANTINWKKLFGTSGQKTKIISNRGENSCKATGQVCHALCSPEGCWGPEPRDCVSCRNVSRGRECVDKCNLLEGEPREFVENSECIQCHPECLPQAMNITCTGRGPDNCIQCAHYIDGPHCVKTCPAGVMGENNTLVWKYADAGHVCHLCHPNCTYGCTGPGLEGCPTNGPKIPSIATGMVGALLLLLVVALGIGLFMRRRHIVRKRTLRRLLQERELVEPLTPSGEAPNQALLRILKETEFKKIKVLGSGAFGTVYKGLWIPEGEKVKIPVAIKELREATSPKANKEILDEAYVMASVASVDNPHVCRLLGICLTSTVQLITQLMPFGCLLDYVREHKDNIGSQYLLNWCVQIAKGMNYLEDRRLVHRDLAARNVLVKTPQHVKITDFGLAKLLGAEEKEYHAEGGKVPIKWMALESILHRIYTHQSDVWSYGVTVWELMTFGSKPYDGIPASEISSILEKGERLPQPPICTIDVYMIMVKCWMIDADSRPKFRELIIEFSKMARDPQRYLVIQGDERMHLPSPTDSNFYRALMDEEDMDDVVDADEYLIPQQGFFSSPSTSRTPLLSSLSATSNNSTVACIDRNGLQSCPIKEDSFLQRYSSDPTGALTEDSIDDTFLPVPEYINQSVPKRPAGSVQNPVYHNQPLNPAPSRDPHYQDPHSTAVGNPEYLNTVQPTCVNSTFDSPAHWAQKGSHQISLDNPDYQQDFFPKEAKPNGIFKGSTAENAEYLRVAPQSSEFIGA
T1 sequence (P00533 with tags, fused parts or gaps INS770SVD): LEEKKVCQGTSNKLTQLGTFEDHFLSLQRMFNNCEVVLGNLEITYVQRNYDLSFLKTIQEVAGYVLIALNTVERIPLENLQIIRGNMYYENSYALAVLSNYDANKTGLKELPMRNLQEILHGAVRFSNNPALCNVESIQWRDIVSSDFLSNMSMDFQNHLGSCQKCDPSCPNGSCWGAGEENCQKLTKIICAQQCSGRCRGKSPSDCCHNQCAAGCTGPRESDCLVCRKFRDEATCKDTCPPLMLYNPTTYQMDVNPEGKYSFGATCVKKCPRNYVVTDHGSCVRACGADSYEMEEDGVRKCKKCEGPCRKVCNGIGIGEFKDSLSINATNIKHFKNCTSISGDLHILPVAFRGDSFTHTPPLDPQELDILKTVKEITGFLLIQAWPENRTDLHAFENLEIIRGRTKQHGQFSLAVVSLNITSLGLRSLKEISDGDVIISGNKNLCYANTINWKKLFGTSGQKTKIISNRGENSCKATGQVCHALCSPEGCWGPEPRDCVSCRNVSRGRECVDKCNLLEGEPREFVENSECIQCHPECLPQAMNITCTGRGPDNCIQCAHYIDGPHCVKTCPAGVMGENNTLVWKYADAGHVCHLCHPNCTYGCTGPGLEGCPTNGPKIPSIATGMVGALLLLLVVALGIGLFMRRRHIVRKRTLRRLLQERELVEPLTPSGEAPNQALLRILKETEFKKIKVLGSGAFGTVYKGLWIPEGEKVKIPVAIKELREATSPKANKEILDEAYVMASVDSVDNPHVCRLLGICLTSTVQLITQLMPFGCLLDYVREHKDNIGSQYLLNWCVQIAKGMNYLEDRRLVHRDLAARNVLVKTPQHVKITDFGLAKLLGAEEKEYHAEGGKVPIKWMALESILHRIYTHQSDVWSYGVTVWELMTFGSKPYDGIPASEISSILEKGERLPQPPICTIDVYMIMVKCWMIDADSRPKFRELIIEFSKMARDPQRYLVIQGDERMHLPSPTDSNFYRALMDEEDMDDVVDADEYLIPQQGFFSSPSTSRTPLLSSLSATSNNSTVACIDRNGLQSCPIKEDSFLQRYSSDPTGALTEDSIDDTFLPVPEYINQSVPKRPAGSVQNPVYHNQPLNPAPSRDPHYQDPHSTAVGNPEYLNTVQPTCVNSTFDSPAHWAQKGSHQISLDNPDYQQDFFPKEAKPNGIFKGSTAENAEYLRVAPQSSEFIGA

Row | Compound | IC50 [1] [µM] | IC50 [2] [µM] | IC50 [3] [µM] | IC50 [4] [µM] | IC50 [5] [µM]
1 | COc1c(F)cccc1Nc1c(-c2ccnc3c(N)noc23)[nH]c2c1C(=O)NCC2 [compound 523, 2-{3-amino-[1,2]oxazolo[4,5-b]pyridin-7-yl}-3-[(3-fluoro-2-methoxyphenyl)amino]-1H,5H,6H,7H-pyrrolo[3,2-c]pyridin-4-one; trifluoroacetic acid] | < 0.1 | 0.1 to 1 | < 0.1 | 0.1 to 1 | –
2 | COc1c(Cl)cccc1Nc1c(-c2ccnc(-c3cn(C)nn3)n2)[nH]c2c1C(=O)NCC2 [compound 545, 3-[(3-chloro-2-methoxyphenyl)amino]-2-[2-(1-methyl-1,2,3-triazol-4-yl)pyrimidin-4-yl]-1H,5H,6H,7H-pyrrolo[3,2-c]pyridin-4-one] | 0.1 to 1 | 0.1 to 1 | < 0.1 | > 1 | –
3 | C=CC(=O)N1CCC(Oc2nc3c(-c4[nH]c5c(c4Nc4cccc(F)c4OC)C(=O)NCC5)ccnc3cc2OC)CC1 [Compound 554, 3-[(3-fluoro-2-methoxyphenyl)amino]-2-(7-methoxy-6-{[1-(prop-2-enoyl)piperidin-4-yl]oxy}-1,5-naphthyridin-4-yl)-1H,5H,6H,7H-pyrrolo[3,2-c]pyridin-4-one] | < 0.1 | < 0.1 | < 0.1 | < 0.1 | –
4 | C=CC(=O)N1CCC2(CC1)CNC(=O)c1c2[nH]c(-c2ccncc2F)c1Nc1cccc(F)c1F [Compound 585, 3′-[(2,3-difluorophenyl)amino]-2′-(3-fluoropyridin-4-yl)-1-(prop-2-enoyl)-5′,6′-dihydro-1′H-spiro[piperidine-4,7′-pyrrolo[3,2-c]pyridin]-4′-one] | < 0.1 | < 0.1 | < 0.1 | 0.1 to 1 | –
5 | COc1c(F)cccc1Nc1c(-c2ccnc(Nc3nnn(C)c3C)n2)[nH]c2c1C(=O)NCC2 [compound 608, 2-{2-[(1,5-dimethyl-1,2,3-triazol-4-yl)amino]pyrimidin-4-yl}-3-[(3-fluoro-2-methoxyphenyl)amino]-1H,5H,6H,7H-pyrrolo[3,2-c]pyridin-4-one] | > 1 | > 1 | > 1 | > 1 | –
6 | COc1c(Cl)cccc1Nc1c(-c2ccncn2)[nH]c2c1C(=O)NC[C@@H]2C[C@@H]1COCCO1 [Compound 528, (7S)-3-[(3-chloro-2-methoxyphenyl)amino]-7-[(2R)-1,4-dioxan-2-ylmethyl]-2-(pyrimidin-4-yl)-1H,5H,6H,7H-pyrrolo[3,2-c]pyridin-4-one] | – | – | < 0.1 | > 1 | –
7 | C=CC(=O)N1CCC2(CC1)CNC(=O)c1c2[nH]c(-c2ccnc(N)n2)c1Nc1cccc(F)c1OC [Compound 162, 1-acryloyl-2′-(2-aminopyrimidin-4-yl)-3′-((3-fluoro-2-methoxyphenyl)amino)-5′,6′-dihydrospiro[piperidine-4,7′-pyrrolo[3,2-c]pyridin]-4′(1′H)-one] | 0.1 to 1 | < 0.1 | 0.1 to 1 | 0.1 to 1 | –
8 | COC(=O)N1CC[C@@]2(CNC(=O)c3c2[nH]c(-c2ccncc2F)c3Nc2cccc(Cl)c2OC)C1 [Compound 498, methyl (3R)-3′-[(3-chloro-2-methoxyphenyl)amino]-2′-(3-fluoropyridin-4-yl)-4′-oxo-5′,6′-dihydro-1′H-spiro[pyrrolidine-3,7′-pyrrolo[3,2-c]pyridine]-1-carboxylate] | > 1 | > 1 | 0.1 to 1 | > 1 | –
9 | COc1c(Cl)cccc1Nc1c(-c2ccncc2F)[nH]c2c1C(=O)NCC2C[C@@H]1CO[C@@H](CN(C)C)CO1 (single isomer, unassigned) [Compound 563, (7R*)-3-[(3-chloro-2-methoxyphenyl)amino]-7-{[(2R,5S)-5-[(dimethylamino)methyl]-1,4-dioxan-2-yl]methyl}-2-(3-fluoropyridin-4-yl)-1H,5H,6H,7H-pyrrolo[3,2-c]pyridin-4-one] | 0.1 to 1 | 0.1 to 1 | 0.1 to 1 | > 1 | –
10 | CC#CC(=O)N1CCC2(CC1)CNC(=O)c1c2[nH]c(-c2ccncc2F)c1Nc1cccc(F)c1OC [Compound 609, 1-(but-2-ynoyl)-3′-[(3-fluoro-2-methoxyphenyl)amino]-2′-(3-fluoropyridin-4-yl)-5′,6′-dihydro-1′H-spiro[piperidine-4,7′-pyrrolo[3,2-c]pyridin]-4′-one] | 0.1 to 1 | 0.1 to 1 | > 1 | > 1 | –
11 | COc1c(Cl)cccc1Nc1c(-c2ccnc(Nc3ccn(CC(C)(C)O)n3)n2)[nH]c2c1C(=O)NCC2 [compound 537, 3-[(3-chloro-2-methoxyphenyl)amino]-2-(2-{[1-(2-hydroxy-2-methylpropyl)pyrazol-3-yl]amino}pyrimidin-4-yl)-1H,5H,6H,7H-pyrrolo[3,2-c]pyridin-4-one] | < 0.1 | < 0.1 | < 0.1 | 0.1 to 1 | –
12 | C=CC(=O)NCC[C@@H]1CNC(=O)c2c1[nH]c(-c1ccnc(C)n1)c2Nc1cccc(Cl)c1OC [compound 654] | < 0.1 | < 0.1 | < 0.1 | 0.1 to 1 | –
13 | COCCOc1cncnc1-c1[nH]c2c(c1Nc1cccc(F)c1OC)C(=O)NCC2 [Compound 676, 3-[(3-fluoro-2-methoxyphenyl)amino]-2-[5-(2-methoxyethoxy)pyrimidin-4-yl]-1H,5H,6H,7H-pyrrolo[3,2-c]pyridin-4-one] | – | – | > 1 | > 1 | –
14 | COc1c(Cl)cccc1Nc1c(-c2ccncn2)[nH]c2c1C(=O)NCC2C[C@H]1COCCO1 (single isomer, unassigned) [Compound 574, (7R*)-3-[(3-chloro-2-methoxyphenyl)amino]-7-[(2S)-1,4-dioxan-2-ylmethyl]-2-(pyrimidin-4-yl)-1H,5H,6H,7H-pyrrolo[3,2-c]pyridin-4-one] | – | – | < 0.1 | > 1 | –
15 | COc1c(Cl)cccc1Nc1c(-c2ccncc2F)[nH]c2c1C(=O)NC[C@@]21CCN(S(C)(=O)=O)C1 [compound 493] | 0.1 to 1 | 0.1 to 1 | – | > 1 | 0.1 to 1
16 | COc1c(Cl)cccc1Nc1c(-c2ccnc3ccc(OCC4(F)CC4)nc23)[nH]c2c1C(=O)NCC2 [compound 759, 3-[(3-chloro-2-methoxyphenyl)amino]-2-[6-[(1-fluorocyclopropyl)methoxy]-1,5-naphthyridin-4-yl]-1H,5H,6H,7H-pyrrolo[3,2-c]pyridin-4-one] | < 0.1 | < 0.1 | – | 0.1 to 1 | < 0.1
17 | C=CC(=O)N1CC[C@]2(CNC(=O)c3c2[nH]c(-c2ccncc2F)c3Nc2cccc(Cl)c2OC)C1 [compound 520] | 0.1 to 1 | 0.1 to 1 | – | 0.1 to 1 | < 0.1
